Test results: paper PMC11314731 (Polymers, 2024)
Where two headings read alike, the source gives them in different places.

Legend:
[1] = cited from earlier work
Mdr1a P-gp = system: Mdr1a P-gp; parameters: method as in PMID 9050899; conditions: cited from earlier work
Caco-2 cells = experiment: In vitro cellular uptake of Rh123 in Caco-2 cells; conditions: Rh123 20 µM, 5 h incubation, 37 °C; TPGS 33 µM, CyA 4 µM

| SMILES | LogP [1] | pKa [1] | increase in plasma AUC of PTX, Mdr1a knockout vs wild-type mice (Mdr1a P-gp; IV administration) | increase in plasma AUC of PTX, Mdr1a knockout vs wild-type mice (Mdr1a P-gp; oral administration) | fluorescence intensity (cellular uptake of Rh123) (Caco-2 cells) |
| --- | --- | --- | --- | --- | --- |
| CC(=O)O[C@H]1C(=O)[C@@]2(C)[C@H]([C@H](OC(=O)c3ccccc3)[C@]3(O)C[C@H](OC(=O)[C@H](O)[C@@H](NC(=O)c4ccccc4)c4ccccc4)C(C)=C1C3(C)C)[C@]1(OC(C)=O)CO[C@@H]1C[C@@H]2O [PTX, Paclitaxel] | 3.66 | 10.36 | twofold increase | more than sixfold increase |  |
| COC(=O)c1ccccc1-c1c2ccc(=N)cc-2oc2cc(N)ccc12 [free Rh123, rhodamine 123] |  |  |  |  | very low fluorescence intensity |
